Test results as given in EP2264011A1, “Heteroarylamidines and their use as fungicides” (Bayer CropScience AG, priority 2009, dated 2010).
One block for each compound: values may come before it.

Columns and labels:
physchem = conditions: pH 2.3
Excerpt: Die Bestimmung erfolgt im sauren Bereich bei pH 2.3 mit 0,1% wässriger Phosphorsäure und Acetonitril als Eluenten linearer Gradient von 10% Acetonitril bis 95% Acetonitril.

Botrytis cinerea = experiment: Botrytis test (cucumber) / protective; assay type: in vivo; conditions: 500ppm active ingredient, evaluated 5-6 days after inoculation
Experimental: (§1) Zur Herstellung einer zweckmäßigen Wirkstoffzubereitung vermischt man 1 Gewichtsteil Wirkstoff mit den angegebenen Mengen Lösungsmittel und Emulgator und verdünnt das Konzentrat mit Wasser auf die gewünschte Konzentration.
Zur Prüfung auf protektive Wirksamkeit bespritzt man junge Gurkenpflanzen mit der Wirkstoffzubereitung in der angegebenen Aufwandmenge. 1 Tag nach der Behandlung werden die Pflanzen mit einer Sporensuspension von Botrytis cinerea inokuliert und stehen dann 48h bei 100% rel. Feuchte und 22°C. Anschließend stehen die Pflanzen bei 96% rel. Luftfeuchtigkeit und einer Temperatur von 14°C.
5-6 Tage nach der Inokulation erfolgt die Auswertung. Dabei bedeutet 0 % ein Wirkungsgrad, der demjenigen der Kontrolle entspricht, während ein Wirkungsgrad von 100 % bedeutet, dass kein Befall beobachtet wird.

Venturia inaequalis = experiment: Venturia test (apple) / protective; assay type: in vivo; conditions: 100ppm active ingredient, evaluated 10 days after inoculation
Excerpt: as §1
Zur Prüfung auf protektive Wirksamkeit werden junge Pflanzen mit der Wirkstoffzubereitung in der angegebenen Aufwandmenge besprüht. Nach Antrocknen des Spritzbelages werden die Pflanzen mit einer wäßrigen Konidiensuspension des Apfelschorferregers Venturia inaequalis inokuliert und verbleiben dann 1 Tag bei ca. 20°C und 100% relativer Luftfeuchtigkeit in einer Inkubations-kabine.
Die Pflanzen werden dann im Gewächshaus bei ca. 21°C und einer relativen Luftfeuchtigkeit von ca. 90% aufgestellt.
10 Tage nach der Inokulation erfolgt die Auswertung. Dabei bedeutet 0% ein Wirkungsgrad, der demjenigen der Kontrolle entspricht, während ein Wirkungsgrad von 100% bedeutet, daß kein Befall beobachtet wird.

[1] = system: Blumeria graminis f·sp. hordei; experiment: Blumeria graminis test (barley) / protective; assay type: in vivo; conditions: 1000 ppm active ingredient, evaluated 7 days after inoculation
Excerpt: as §1
Zur Prüfung auf protektive Wirksamkeit besprüht man junge Pflanzen mit der Wirkstoffzubereitung in der angegebenen Aufwandmenge.
Nach Antrocknen des Spritzbelages werden die Pflanzen mit Sporen von Blumeria graminis f·sp. hordei bestäubt.
Die Pflanzen werden in einem Gewächshaus bei einer Temperatur von ca. 18°C und einer relativen Luftfeuchtigkeit von ca. 80 % aufgestellt, um die Entwicklung von Mehltaupusteln zu begünstigen.
7 Tage nach der Inokulation erfolgt die Auswertung. Dabei bedeutet 0 % ein Wirkungsgrad, der demjenigen der Kontrolle entspricht, während ein Wirkungsgrad von 100 % bedeutet, dass kein Befall beobachtet wird.

Myzus persicae [2] = experiment: Myzus test (MYZUPE spray treatment); assay type: in vivo; conditions: 500 g/ha; spray on Chinese cabbage leaf discs (Brassica pekinensis); 100 % = all aphids killed
Excerpt: (§2) Zur Herstellung einer zweckmäßigen Wirkstoffzubereitung vermischt man 1 Gewichtsteil Wirkstoff mit den angegebenen Mengen Lösungsmittel und Emulgator und verdünnt das Konzentrat mit emulgatorhaltigem Wasser auf die gewünschte Konzentration.
Chinakohlblattscheiben (Brassica pekinensis), die von allen Stadien der Grünen Pfirsichblattlaus (Myzus persicae) befallen sind, werden mit einer Wirkstoffzubereitung der gewünschten Konzentration gespritzt.
(§3) Nach der gewünschten Zeit wird die Wirkung in % bestimmt. Dabei bedeutet 100 %, dass alle Blattläuse abgetötet wurden; 0 % bedeutet, dass keine Blattläuse abgetötet wurden.

Meloidogyne incognita = experiment: Meloidogyne test (MELGIN); assay type: in vivo; conditions: 20 ppm; sand with lettuce seeds; 100 % = no galls
Excerpt: as §1
Gefäße werden mit Sand, Wirkstofflösung, Meloidogyne incognita-Ei-Larvensuspension und Salatsamen gefüllt. Die Salatsamen keimen und die Pflänzchen entwickeln sich. An den Wurzeln entwickeln sich die Gallen.
Nach der gewünschten Zeit wird die nematizide Wirkung an Hand der Gallenbildung in % bestimmt. Dabei bedeutet 100 %, dass keine Gallen gefunden wurden; 0 % bedeutet, dass die Zahl der Gallen an den behandelten Pflanzen der der unbehandelten Kontrolle entspricht.

Myzus persicae [3] = experiment: Myzus test; oral (MYZUPE); assay type: in vivo; conditions: 100 g/ha; oral uptake by sucking; 100 % = all aphids killed
Excerpt: Zur Herstellung einer zweckmäßigen Wirkstoffzubereitung vermischt man 1 Gewichtsteil Wirkstoff mit den angegebenen Mengen Lösungsmittel und verdünnt das Konzentrat mit Wasser auf die gewünschte Konzentration.
Gefäße werden mit allen Stadien der Grünen Pfirsichblattlaus (Myzus persicae) besetzt, durch saugen an der Wirkstoffzubereitung der gewünschten Konzentration wird behandelt.
as §3

SETVI [4] = experiment: Herbicidal action, test type PE; assay type: in vivo; conditions: Test-Typ PE, 320 G/HA
Excerpt: (§4) Die herbizide Wirkung der Verbindungen der allgemeinen Formel (I) wird in den nachfolgenden Tabellen näher erläutert.

AMARE [5] = experiment: Herbicidal action, test type PE; assay type: in vivo; conditions: Test-Typ PE, 320 G/HA
Excerpt: as §4

VIOTR = experiment: Herbicidal action, test type PE; assay type: in vivo; conditions: Test-Typ PE, 320 G/HA
Excerpt: as §4

VERPE [6] = experiment: Herbicidal action, test type PE; assay type: in vivo; conditions: Test-Typ PE, 320 G/HA
Excerpt: as §4

ECHCG = experiment: Herbicidal action, test type PE; assay type: in vivo; conditions: Test-Typ PE, 320 G/HA
Excerpt: as §4

SETVI [7] = experiment: Herbicidal action, test type PO; assay type: in vivo; conditions: TEST-TYP PO, 80 G/HA
Excerpt: as §4

AMARE [8] = experiment: Herbicidal action, test type PO; assay type: in vivo; conditions: TEST-TYP PO, 80 G/HA
Excerpt: as §4

VERPE [9] = experiment: Herbicidal action, test type PO; assay type: in vivo; conditions: TEST-TYP PO, 80 G/HA
Excerpt: as §4

Tetranychus urticae = experiment: Tetranychus test, OP-resistant (TETRUR spray treatment); assay type: in vivo; conditions: 500 g/ha; spray on bean leaf discs (Phaseolus vulgaris); 100 % = all spider mites killed
Excerpt: as §2
Bohnenblattscheiben (Phaseolus vulgaris), die von allen Stadien der Gemeinen Spinnmilbe (Tetranychus urticae) befallen sind, werden mit einer Wirkstoffzubereitung der gewünschten Konzentration gespritzt.
Nach der gewünschten Zeit wird die Wirkung in % bestimmt. Dabei bedeutet 100 %, dass alle Spinnmilben abgetötet wurden; 0 % bedeutet, dass keine Spinnmilben abgetötet wurden.

DIGSA = experiment: Herbicidal action, test type PE; assay type: in vivo; conditions: Test-Typ PE, 320 G/HA
Excerpt: as §4

PHBPU = experiment: Herbicidal action, test type PO; assay type: in vivo; conditions: TEST-TYP PO, 80 G/HA
Excerpt: as §4

Structure (SMILES): Cc1cc(-c2ccc(C(C)(C)C)cc2)ncc1N=CN1CCCCC1 [Beispiel 150]
- Wirkungsgrad (Botrytis cinerea): ≥ 70%
- Wirkungsgrad (Venturia inaequalis): ≥ 70%

Structure (SMILES): CCN(C)C=Nc1cnc(-c2ccc(C(C)(C)C)cc2)cc1C [Beispiel 142]
- Wirkungsgrad [1]: ≥ 70%
- Wirkungsgrad (Botrytis cinerea): ≥ 70%

Structure (SMILES): Cc1cc(-c2ccc(F)nc2)ncc1N=CN(C)C [Beispiel 234]
- Wirkung (Myzus persicae [2]): ≥ 80%
- nematizide Wirkung an Hand der Gallenbildung (Meloidogyne incognita): ≥ 80%
- Wirkung (Myzus persicae [3]): ≥ 80%

Structure (SMILES): Cc1cc(-c2ccc(C(F)(F)F)c(Cl)c2)ncc1N=CN(C)C [Beispiel 105]
- herbizide Wirkung VIOTR (VIOTR): 90
- herbizide Wirkung SETVI (SETVI [4]): 80
- herbizide Wirkung VERPE (VERPE [6]): 100
- herbizide Wirkung ECHCG (ECHCG): 80
- herbizide Wirkung SETVI (SETVI [7]): 80
- herbizide Wirkung AMARE (AMARE [8]): 80
- herbizide Wirkung VERPE (VERPE [9]): 80
- nematizide Wirkung an Hand der Gallenbildung (Meloidogyne incognita): ≥ 80%
- Wirkung (Tetranychus urticae): ≥ 80%

Structure (SMILES): CCN(C)C=Nc1cnc(-c2ccc(C3CCCCC3)cc2)cc1C [Beispiel 209]
- Wirkungsgrad (Botrytis cinerea): ≥ 70%
- Wirkungsgrad (Venturia inaequalis): ≥ 70%

Structure (SMILES): Cc1cc(-c2cc(C(F)(F)F)cc(C(F)(F)F)c2)ncc1N=CN(C)C [Beispiel 172]
- Wirkung (Myzus persicae [3]): ≥ 80%

Structure (SMILES): CCN(C)C=Nc1cnc(-c2cccnc2)cc1C [Beispiel 95]
- Wirkung (Myzus persicae [2]): ≥ 80%
- Wirkung (Myzus persicae [3]): ≥ 80%

Structure (SMILES): Cc1cc(Cl)ncc1N=CN(C)C [Beispiel 131]
- Wirkungsgrad (Botrytis cinerea): ≥ 70%

Structure (SMILES): Cc1cc(-c2cccnc2)ncc1N=CN(C)C [Beispiel 270]
- Wirkung (Myzus persicae [2]): ≥ 80%
- Wirkung (Myzus persicae [3]): ≥ 80%

Structure (SMILES): CCN(C)C=Nc1cnc(-c2ccc(OC(F)(F)F)c(F)c2)cc1C [Beispiel 247]
- nematizide Wirkung an Hand der Gallenbildung (Meloidogyne incognita): ≥ 80%
- Wirkung (Myzus persicae [3]): ≥ 80%

Structure (SMILES): CCN(C)C=Nc1cnc(-c2ccc(Cl)c(C(F)(F)F)c2)cc1C [Beispiel 15]
- herbizide Wirkung DIGSA (DIGSA): 100
- herbizide Wirkung SETVI (SETVI [4]): 100
- herbizide Wirkung AMARE (AMARE [5]): 90
- herbizide Wirkung VERPE (VERPE [6]): 90
- herbizide Wirkung ECHCG (ECHCG): 90
- Wirkungsgrad [1]: ≥ 70%
- herbizide Wirkung PHBPU (PHBPU): 90
- herbizide Wirkung VERPE (VERPE [9]): 80
- Wirkungsgrad (Botrytis cinerea): ≥ 70%
- Wirkungsgrad (Venturia inaequalis): ≥ 70%

Structure (SMILES): Cc1cc(-c2ccc(C(F)(F)F)cc2)ncc1N=CN(C)C [Beispiel 100]
- nematizide Wirkung an Hand der Gallenbildung (Meloidogyne incognita): ≥ 80%

Now from value to compound, other results behind:

- chromatographic logP (physchem): 0.94
Structure (SMILES): CC(=Nc1cnc(-c2ccc(Cl)c(C(F)(F)F)c2)cc1C)N1CCCCC1 [compound 124]

- chromatographic logP (physchem): 2.23
Structure (SMILES): Cc1cc(-c2ccc(Cl)c(C(F)(F)F)c2)ncc1N=CN(C(C)C)C(C)C [compound 120]

- chromatographic logP (physchem): 1.92
Structure (SMILES): CCN(C=Nc1cnc(-c2ccc(Cl)c(C(F)(F)F)c2)cc1C)CC [Beispiel 119]
- herbizide Wirkung SETVI (SETVI [4]): 100
- herbizide Wirkung AMARE (AMARE [5]): 80

- chromatographic logP (physchem): 1.51
Structure (SMILES): Cc1cc(-c2ccc([Si](C)(C)C)cc2)ncc1N=CN(C)C [compound 115]

- chromatographic logP (physchem): 1.6
Structure (SMILES): CCN(C)C=Nc1cnc(-c2ccc([Si](C)(C)C)cc2)cc1C [compound 116]

- chromatographic logP (physchem): 1.9
Structure (SMILES): Cc1cc(-c2ccc(F)c(C(F)(F)F)c2)ncc1N=CN(C(C)C)C(C)C [compound 122]

- chromatographic logP (physchem): 1.03
Structure (SMILES): CC(=Nc1cnc(-c2ccc(Cl)c(C(F)(F)F)c2)cc1C)N(C)C [compound 123]

- chromatographic logP (physchem): 1.25
Structure (SMILES): Cc1cc(-c2ccc(OC(F)(F)F)cc2)ncc1N=CN(C)C [compound 113]

- chromatographic logP (physchem): 1.75
Structure (SMILES): Cc1cc(-c2ccc(Cl)c(C(F)(F)F)c2)ncc1N=CN1CCCC1 [compound 117]

- chromatographic logP (physchem): 2.49
Structure (SMILES): CCCCN(C=Nc1cnc(-c2ccc(Cl)c(C(F)(F)F)c2)cc1C)CCCC [compound 118]

- chromatographic logP (physchem): 1.34
Structure (SMILES): CCN(C)C=Nc1cnc(-c2ccc(OC(F)(F)F)cc2)cc1C [compound 114]

- chromatographic logP (physchem): 1.85
Structure (SMILES): Cc1cc(-c2ccc(F)c(C(F)(F)F)c2)ncc1N=CN1CCCC1 [compound 121]
